Common to all, as to assay: AK assay 384-well format, Prestwick library screening
For one test, the system named is E. faecium. In kind it is cell-based, Enterococcus faecium. The following applies: 50 μM final drug concentration; for fold induction at 50 µM: Enterococcus faecium, 3 h.
The test system of test [1] is S. aureus strain USA300-0114. Type of test: cell-based, Staphylococcus aureus. The conditions noted are these: 50 μM final drug concentration; for fold induction at 50 µM: Staphylococcus aureus, USA300, 3 h.
Another test relates to K. pneumoniae. Type of test: cell-based, Klebsiella pneumoniae. The following applies: 50 μM final drug concentration; for fold induction at 50 µM: Klebsiella pneumoniae, 3 h.
Test [2] relates to A. baumannii strain 98-37-09. In kind it is cell-based, Acinetobacter baumannii. The following applies: 50 μM final drug concentration; for fold induction at 50 µM: Acinetobacter baumannii, 983709, 3 h.
A further test relates to P. aeruginosa. Type of test: cell-based, Pseudomonas aeruginosa. The conditions noted are these: 50 μM final drug concentration; for fold induction at 50 µM: Pseudomonas aeruginosa, 3 h.
In another test the test system is E. cloacae. Type of test: cell-based, Enterobacter cloacae. The conditions noted are these: 50 μM final drug concentration; for fold induction at 50 µM: Enterobacter cloacae, 3 h.
For a further test, the system named is E. coli. Type of test: cell-based, Escherichia coli. The conditions noted are these: 50 μM final drug concentration; for fold induction at 50 µM: Escherichia coli, 3 h.
Setting [3] is: planktonic, cutoff for positive-scoring molecules 3-fold increase, read-out: AK-based Prestwick Library Screening Results, E. faecium (fold increase in extracellular AK activity).
The mark [4] stands for this setting: planktonic, cutoff for positive-scoring molecules 3-fold increase, read-out: AK-based Prestwick Library Screening Results, S. aureus (fold increase in extracellular AK activity).
The mark [5] stands for this setting: planktonic, cutoff for positive-scoring molecules 3-fold increase, read-out: AK-based Prestwick Library Screening Results, K. pneumoniae (fold increase in extracellular AK activity).
The mark [6] stands for this setting: planktonic, cutoff for positive-scoring molecules 3-fold increase, read-out: AK-based Prestwick Library Screening Results, A. baumannii (fold increase in extracellular AK activity).
[7] abbreviates: planktonic, cutoff for positive-scoring molecules 3-fold increase, read-out: AK-based Prestwick Library Screening Results, P. aeruginosa (fold increase in extracellular AK activity).
The mark [8] stands for this setting: planktonic, cutoff for positive-scoring molecules 3-fold increase, read-out: AK-based Prestwick Library Screening Results, E. cloacae (fold increase in extracellular AK activity).
Where [9] appears, read: planktonic, cutoff for positive-scoring molecules 3-fold increase, read-out: AK-based Prestwick Library Screening Results, E. coli (fold increase in extracellular AK activity).
[10] abbreviates: planktonic, cutoff for positive 3-fold increase.

Counter-ions that a name gives are not always drawn. Like-named read-outs stand apart in the source and are kept apart here.

For the compound `Cn1c(-c2ccc3c(c2)OCO3)cc(=O)c2ccccc21` [Graveoline], the fold induction at 50 µM in the test with E. faecium (setting [3]) is 0.8; in test [1] (setting [4]), 0.7; in the test on K. pneumoniae (setting [5]), 0.6; in test [2] (setting [6]), 0.8; in the test with P. aeruginosa (setting [7]), 0.8; in the test on E. cloacae (setting [8]) it was 1.2. In addition, the fold induction at 50 µM in the test on E. coli (setting [9]) came out at 0.8.
`C[C@@]12C(=O)OC(=O)[C@]1(C)[C@H]1CC[C@@H]2O1` [Cantharidin]: the fold induction at 50 µM in the test with E. faecium (planktonic, […], read-out: AK-based Prestwick Library Screening Results, E. faecium (fold increase in extracellular AK activity)) was 0.8; in test [1] (planktonic, […], read-out: AK-based Prestwick Library Screening Results, S. aureus (fold increase in extracellular AK activity)), 0.5; in the test on K. pneumoniae (planktonic, […], read-out: AK-based Prestwick Library Screening Results, K. pneumoniae (fold increase in extracellular AK activity)), 0.6; in test [2] (planktonic, […], read-out: AK-based Prestwick Library Screening Results, A. baumannii (fold increase in extracellular AK activity)) it was 0.5; in the test with P. aeruginosa (planktonic, […], read-out: AK-based Prestwick Library Screening Results, P. aeruginosa (fold increase in extracellular AK activity)), 0.5; in the test with E. cloacae (planktonic, […], read-out: AK-based Prestwick Library Screening Results, E. cloacae (fold increase in extracellular AK activity)), 0.6. For the same compound, in the test with E. coli (planktonic, […], read-out: AK-based Prestwick Library Screening Results, E. coli (fold increase in extracellular AK activity)), the fold induction at 50 µM came to 0.6.
`CN1CCc2c(c3ccccc3n2Cc2ccccc2)C1.O=S(=O)(O)c1cccc2c(S(=O)(=O)O)cccc12` [Mebhydroline 1,5-naphtalenedisulfonate]: the “AK-based Prestwick Library Screening Results, E. faecium (fold increase in extracellular AK activity)” value with E. faecium (setting [10]) was 1.0. Further, the “AK-based Prestwick Library Screening Results, S. aureus (fold increase in extracellular AK activity)” value in test [1] (setting [10]) was found to be 0.9. For the same compound, the “AK-based Prestwick Library Screening Results, K. pneumoniae (fold increase in extracellular AK activity)” value with K. pneumoniae (setting [10]) amounted to 0.8. The “AK-based Prestwick Library Screening Results, A. baumannii (fold increase in extracellular AK activity)” value in test [2] (setting [10]) was 0.9. In addition, in the test on P. aeruginosa (setting [10]), the “AK-based Prestwick Library Screening Results, P. aeruginosa (fold increase in extracellular AK activity)” value worked out at 1.1. Besides, in the test on E. cloacae (setting [10]), the “AK-based Prestwick Library Screening Results, E. cloacae (fold increase in extracellular AK activity)” value was found to be 1.5. Also, in the test on E. coli (setting [10]), the “AK-based Prestwick Library Screening Results, E. coli (fold increase in extracellular AK activity)” value is 1.1.
With `Cc1ncc(C[n+]2csc(CCO)c2C)c(N)n1` [Thiamine hydrochloride], the fold induction at 50 µM with E. faecium (planktonic, cutoff for positive 3-fold increase, read-out: AK-based Prestwick Library Screening Results, E. faecium (fold increase in extracellular AK activity)) was 1; in test [1] (planktonic, cutoff for positive 3-fold increase, read-out: AK-based Prestwick Library Screening Results, S. aureus (fold increase in extracellular AK activity)), 1.1; in the test on K. pneumoniae (planktonic, cutoff for positive 3-fold increase, read-out: AK-based Prestwick Library Screening Results, K. pneumoniae (fold increase in extracellular AK activity)), 1.4; in test [2] (planktonic, cutoff for positive 3-fold increase, read-out: AK-based Prestwick Library Screening Results, A. baumannii (fold increase in extracellular AK activity)), 1.3; in the test with P. aeruginosa (planktonic, cutoff for positive 3-fold increase, read-out: AK-based Prestwick Library Screening Results, P. aeruginosa (fold increase in extracellular AK activity)) it was 1.3; in the test on E. cloacae (planktonic, cutoff for positive 3-fold increase, read-out: AK-based Prestwick Library Screening Results, E. cloacae (fold increase in extracellular AK activity)) it was 1.3. For the same compound, the fold induction at 50 µM in the test on E. coli (planktonic, cutoff for positive 3-fold increase, read-out: AK-based Prestwick Library Screening Results, E. coli (fold increase in extracellular AK activity)) came out at 1.4.
Regarding `C#C[C@]1(OC(C)=O)CC[C@H]2[C@@H]3CCC4=C[C@@H](OC(C)=O)CC[C@@H]4[C@H]3CC[C@@]21C` [Ethynodiol diacetate], the fold induction at 50 µM in the test with E. faecium (setting [3]) is 0.9; in test [1] (setting [4]), 0.5; in the test with K. pneumoniae (setting [5]), 0.7; in test [2] (setting [6]), 0.9; in the test with P. aeruginosa (setting [7]), 0.9; with E. cloacae (setting [8]) it was 1.1. Further, in the test on E. coli (setting [9]), the fold induction at 50 µM is 0.8.
For the compound `Nc1ccc(S(=O)(=O)NC(=O)c2ccccc2)cc1` [Sulfabenzamide], the fold induction at 50 µM in the test with E. faecium (cutoff for positive-scoring molecules 3-fold increase, read-out: AK-based Prestwick Library Screening Results, E. faecium (fold increase in extracellular AK activity)) came to 1.1; in test [1] (cutoff for positive-scoring molecules 3-fold increase, read-out: AK-based Prestwick Library Screening Results, S. aureus (fold increase in extracellular AK activity)), 1.2; in the test with K. pneumoniae (cutoff for positive-scoring molecules 3-fold increase, read-out: AK-based Prestwick Library Screening Results, K. pneumoniae (fold increase in extracellular AK activity)), 1.1; in test [2] (cutoff for positive-scoring molecules 3-fold increase, read-out: AK-based Prestwick Library Screening Results, A. baumannii (fold increase in extracellular AK activity)), 2.8; in the test with P. aeruginosa (cutoff for positive-scoring molecules 3-fold increase, read-out: AK-based Prestwick Library Screening Results, P. aeruginosa (fold increase in extracellular AK activity)), 1.1; with E. cloacae (cutoff for positive-scoring molecules 3-fold increase, read-out: AK-based Prestwick Library Screening Results, E. cloacae (fold increase in extracellular AK activity)) it was 1.6. For the same compound, in the test on E. coli (cutoff for positive-scoring molecules 3-fold increase, read-out: AK-based Prestwick Library Screening Results, E. coli (fold increase in extracellular AK activity)), the fold induction at 50 µM turned out to be 1.1.
On to `O=C1CN(/N=C/c2ccc([N+](=O)[O-])o2)C(=O)N1` [Nitrofurantoin], for which the fold induction at 50 µM in the test with E. faecium (384-well format, cutoff for positive-scoring molecules 3-fold increase, read-out: AK-based Prestwick Library Screening Results, E. faecium (increase in extracellular AK activity)) came out at 1; in test [1] (384-well format, cutoff for positive-scoring molecules 3-fold increase, read-out: AK-based Prestwick Library Screening Results, S. aureus (increase in extracellular AK activity)), 0.4; in the test with K. pneumoniae (384-well format, cutoff for positive-scoring molecules 3-fold increase, read-out: AK-based Prestwick Library Screening Results, K. pneumoniae (increase in extracellular AK activity)), 0.8; in test [2] (384-well format, cutoff for positive-scoring molecules 3-fold increase, read-out: AK-based Prestwick Library Screening Results, A. baumannii (increase in extracellular AK activity)) it was 0.5; with P. aeruginosa (384-well format, cutoff for positive-scoring molecules 3-fold increase, read-out: AK-based Prestwick Library Screening Results, P. aeruginosa (increase in extracellular AK activity)), 0.4; in the test with E. cloacae (384-well format, cutoff for positive-scoring molecules 3-fold increase, read-out: AK-based Prestwick Library Screening Results, E. cloacae (increase in extracellular AK activity)), 0.6. Also, the fold induction at 50 µM in the test on E. coli (384-well format, cutoff for positive-scoring molecules 3-fold increase, read-out: AK-based Prestwick Library Screening Results, E. coli (increase in extracellular AK activity)) was found to be 0.4.
For `COc1ccccc1OCC(O)CN1CCN(CC(=O)Nc2c(C)cccc2C)CC1` (centres unmarked) [Ranolazine], the fold induction at 50 µM in the test on E. faecium (planktonic E. faecium, positive cutoff 3-fold increase, read-out: AK-based Prestwick library screening result, E. faecium (fold increase in extracellular AK activity)) was determined as 0.9; in test [1] (planktonic S. aureus, positive cutoff 3-fold increase, read-out: AK-based Prestwick library screening result, S. aureus (fold increase in extracellular AK activity)), 1; in the test with K. pneumoniae (planktonic K. pneumoniae, positive cutoff 3-fold increase, read-out: AK-based Prestwick library screening result, K. pneumoniae (fold increase in extracellular AK activity)) it was 0.9; in test [2] (planktonic A. baumannii, positive cutoff 3-fold increase, read-out: AK-based Prestwick library screening result, A. baumannii (fold increase in extracellular AK activity)), 1.2; in the test on P. aeruginosa (planktonic P. aeruginosa, positive cutoff 3-fold increase, read-out: AK-based Prestwick library screening result, P. aeruginosa (fold increase in extracellular AK activity)), 1; in the test on E. cloacae (planktonic E. cloacae, positive cutoff 3-fold increase, read-out: AK-based Prestwick library screening result, E. cloacae (fold increase in extracellular AK activity)) it was 1.4. For the same compound, the fold induction at 50 µM with E. coli (planktonic E. coli, positive cutoff 3-fold increase, read-out: AK-based Prestwick library screening result, E. coli (fold increase in extracellular AK activity)) came out at 1.2.

These data come from patent US10004701B2, “Methods and compositions for treating infection” (UNIVERSITY OF ROCHESTER, priority 2012, dated 2018).
